Measured values from patent US20250152610A1, “IMIDAZOLATE GOLD COMPOUNDS FOR THE TREATMENT OF LUNG CANCER” (University of Cincinnati, priority 2022, published 2025).

Assays:
[1] = test system: KRAS-WT lung cancer cells (H1395, H522, H661, H1993, H332, H820) versus KM lung cancer cells (H157, H1264, H2122, H460, A549); test: MTT cell viability assay on panel of KRAS-WT and KM lung cancer cell lines; format: cell-based, human; conditions: 1 nM to 100 μM; FIGS. 3A-3F; unpaired t test
Procedure: Experiments were carried out to determine whether DM20 and CS47 are reversible TrxR inhibitors capable of triggering ferroptosis in KRAS-WT lung cancer cells. DM20 and CS47 in concentrations ranging from 1 nM to 100 μM were tested on a panel of KM and KRAS-WT cell lines in MTT cell viability assays. The tested KM cell lines included H157, H1264, H2122, H460, and A549 cells. The tested KRAS-WT cell lines included H1395, H522, H661, H1993, H332, and H820. Auranofin was included as a positive drug control and the human lung […] fibroblast cell line IMR90 was included as a normal, non-transformed cell counterpart. MTT viability and IC50 values were determined, results for which are shown in FIGS. 3A-3F, wherein each line or symbol corresponds to a human […] cell line. Statistics indicate unpaired t test with *, p<0.05, and **, p<0.01.

[2] = test system: H522 KRAS-WT lung cancer cells; test: MTT cell viability rescue with ferrostatin-1, L-cysteine or NAC; format: cell-based, human; conditions: 48 hours, DM20 10 μM, CS47 10 uM, auranofin 1 μM; for rescue of cell viability by ferrostatin-1 (Fer-1): FIG. 4A; for rescue of cell viability by cysteine: FIG. 4B; for rescue of cell viability by n-acetyl-cysteine (NAC): FIG. 4C
Procedure: H522 KRAS-WT lung cancer cells were treated with DM20 (10 μM), CS47 (10 uM), or auranofin (1 μM) in combination with ferrostatin-1, L-cysteine, or n-acetyl-cysteine (all mM, 48 hours of treatment, in quadruplicate). Statistics indicate one-way ANOVA followed by Sidak's multiple comparisons analysis with ns, p>0.05; *, p<0.05: **, p<0.01; ***, p<0.001 and ****, p<0.0001.

GPX4 = conditions: H522 KRAS-WT and A546 KM cells, 10 μM, 48 hours; FIG. 5A
Procedure: H522 KRAS-WT lung cancer cells and A546 KM lung cancer cells were treated with vehicle (negative control), DM20 (10 μM), CS47 (10 μM), and auranofin (1 μM, positive control) for 48 hours. Protein lysates were extracted from the cells and Western blot analysis was carried out to detect expression of TXNRD1 and GPX4 in the cell lines after treatment, with GAPDH expression detected as a control.

[3] = test system: H193 and H1395 KRAS-WT lung cancer cells; conditions: for lipid peroxidation (oxidized C11-BODIPY) in KRAS-WT cells: 10 μM, 48 hours, FIG. 5B; for ferroptosis induction in KRAS-WT lung cancer cells (overall conclusion): taken together from Examples 1-4
Procedure: H157 and A549 KM lung cancer cells and H193 and H1395 KRAS-WT lung cancer cells were treated with vehicle (negative control), DM20 (10 μM), CS47 (10 μM), or auranofin (1 μM positive control) for 48 hours. Cells were then stained with DAP, oxidized C11-BODIPY, and reduced C11-BODIPY. C11-BODIPY is a ferroptosis lipid sensor that switches from red to green fluorescence upon oxidation.

| SMILES | sensitivity of KRAS-WT lung cancer cells compared with KM lung cancer cells (MTT viability, IC50) [1] | rescue of cell viability by ferrostatin-1 (Fer-1) [2] | rescue of cell viability by cysteine [2] | rescue of cell viability by n-acetyl-cysteine (NAC) [2] | GPX4 expression after treatment (Western blot) (GPX4) | lipid peroxidation (oxidized C11-BODIPY) in KRAS-WT cells [3] | ferroptosis induction in KRAS-WT lung cancer cells (overall conclusion) [3] |
| --- | --- | --- | --- | --- | --- | --- | --- |
| Clc1nc[n]([Au][PH](c2ccccc2)(c2ccccc2)c2ccccc2)c1Cl [CS47, 4,5-dichloro-imidazolate-1yl-gold(I)-triphenylphosphane] | significantly and selectively more sensitive | can rescue the cell viability | can rescue the cell viability | can rescue the cell viability | depletes GPX4 expression | induces lipid peroxidation | induce ferroptosis |
| N#Cc1nc[n]([Au][PH](c2ccccc2)(c2ccccc2)c2ccccc2)c1C#N [DM20, 4,5-dicyano-imidazolate-1yl-gold(I)-triphenylphosphane] | significantly and selectively more sensitive | can rescue the cell viability | can rescue the cell viability | can rescue the cell viability | depletes GPX4 expression | induces lipid peroxidation | induce ferroptosis |
| CC(=O)OC[C@H]1O[C@@H]([S-])[C@H](OC(C)=O)[C@@H](OC(C)=O)[C@@H]1OC(C)=O.CCP(CC)CC.[Au+] [auranofin, reference compound] | significantly and selectively more sensitive | can rescue the cell viability | can rescue the cell viability | can rescue the cell viability |  |  |  |
